Consider 21 compounds from patent US12673936B2, “Isoindolinone compounds, and uses thereof” (HANGZHOU GLUBIO PHARMACEUTICAL CO., LTD., priority 2021, dated 2026).

One assay has as its target HiBiT tagged GSPT1 (Homo sapiens, UniProt P15170+Q96SW2). Briefly: GSPT1 degradation assay (HiBiT assay). The class given is cell-based. As to conditions: 20 hours, maximum GSPT1 degradation; for Dmax: HT-1080, HT-1080 cells. How it is done:
(§1) CK1α and GSPT1 Degradation Assay (HiBiT Assay) The following is an example of an assay that can be used to determine the dose-dependent CK1α and GSPT1 degradation activities of test compounds in a human cell line such as HT-1080 ([…]). HT-1080 cells stably overexpressing wild-type CRBN, GSPT1A(1-138)/G575N mutant and HiBiT tagged CK1α or GSPT1 were seeded into 384-well plates (Cat #3764, Corning) pre-spotted with DMSO or test compounds. Increasing concentrations of test compounds (ranging from 3.162×10^-4 μM to 10 μM at a 3.16-fold increment) or DMSO were dispensed into an empty 384-well plate using an Echo Acoustic Liquid Handler (Beckman Coulter). About 10,000 cells in complete DMEM cell culture media were seeded per well. […] Luminescence was then measured with an EnVision plate reader (PerkinElmer) or a PHERAstar plate reader (BMG Labtech). All CK1α or GSPT1 degradation curves were processed using Collaborative Drug Discovery Vault softwares (Burlingame, CA., www.collaborativedrug.com). CK1α or GSPT1 levels in compound-treated wells were normalized to that of DMSO control and expressed as Percent of Control (PoC, y). […]
For orientation: The HiBiT peptide binds its large partner to form an active luciferase.

The target in another assay is HiBiT tagged CK1α (Homo sapiens, UniProt P48729+Q96SW2). Briefly: CK1α degradation assay (HiBiT assay). Type of assay: cell-based. The settings on record: 20 hours; for Dmax: HT-1080, HT-1080 cells; for DC50: concentration at 50% CK1α degradation. How it is done:
as §1

Chain of HiBiT tagged GSPT1 (P15170 whole entry): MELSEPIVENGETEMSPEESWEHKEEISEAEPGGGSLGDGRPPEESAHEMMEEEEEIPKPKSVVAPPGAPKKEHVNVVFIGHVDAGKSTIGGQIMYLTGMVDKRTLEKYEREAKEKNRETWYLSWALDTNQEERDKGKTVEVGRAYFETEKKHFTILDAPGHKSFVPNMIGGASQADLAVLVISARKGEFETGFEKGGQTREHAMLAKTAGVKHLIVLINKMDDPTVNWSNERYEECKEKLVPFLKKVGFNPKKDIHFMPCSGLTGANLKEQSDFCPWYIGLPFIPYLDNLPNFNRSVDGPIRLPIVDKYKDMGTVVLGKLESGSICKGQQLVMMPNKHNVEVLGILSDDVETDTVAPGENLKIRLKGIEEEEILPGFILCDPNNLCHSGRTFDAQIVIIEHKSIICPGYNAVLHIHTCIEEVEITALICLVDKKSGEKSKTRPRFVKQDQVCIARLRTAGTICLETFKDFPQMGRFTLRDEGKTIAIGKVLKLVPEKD
Chain of HiBiT tagged GSPT1 (Q96SW2 whole entry): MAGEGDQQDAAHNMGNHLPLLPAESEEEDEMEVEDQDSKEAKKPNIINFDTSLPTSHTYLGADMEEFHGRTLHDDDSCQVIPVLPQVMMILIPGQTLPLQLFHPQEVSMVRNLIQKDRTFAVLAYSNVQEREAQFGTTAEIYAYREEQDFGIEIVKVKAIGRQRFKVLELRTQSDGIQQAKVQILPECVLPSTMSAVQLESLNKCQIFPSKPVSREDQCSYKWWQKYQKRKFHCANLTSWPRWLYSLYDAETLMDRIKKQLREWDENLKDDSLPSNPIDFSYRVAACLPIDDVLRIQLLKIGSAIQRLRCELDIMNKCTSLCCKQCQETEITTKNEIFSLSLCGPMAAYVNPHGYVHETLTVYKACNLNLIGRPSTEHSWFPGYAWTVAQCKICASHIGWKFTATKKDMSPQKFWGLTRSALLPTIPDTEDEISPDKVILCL
Chain of HiBiT tagged GSPT1 (Q16531 whole entry partner): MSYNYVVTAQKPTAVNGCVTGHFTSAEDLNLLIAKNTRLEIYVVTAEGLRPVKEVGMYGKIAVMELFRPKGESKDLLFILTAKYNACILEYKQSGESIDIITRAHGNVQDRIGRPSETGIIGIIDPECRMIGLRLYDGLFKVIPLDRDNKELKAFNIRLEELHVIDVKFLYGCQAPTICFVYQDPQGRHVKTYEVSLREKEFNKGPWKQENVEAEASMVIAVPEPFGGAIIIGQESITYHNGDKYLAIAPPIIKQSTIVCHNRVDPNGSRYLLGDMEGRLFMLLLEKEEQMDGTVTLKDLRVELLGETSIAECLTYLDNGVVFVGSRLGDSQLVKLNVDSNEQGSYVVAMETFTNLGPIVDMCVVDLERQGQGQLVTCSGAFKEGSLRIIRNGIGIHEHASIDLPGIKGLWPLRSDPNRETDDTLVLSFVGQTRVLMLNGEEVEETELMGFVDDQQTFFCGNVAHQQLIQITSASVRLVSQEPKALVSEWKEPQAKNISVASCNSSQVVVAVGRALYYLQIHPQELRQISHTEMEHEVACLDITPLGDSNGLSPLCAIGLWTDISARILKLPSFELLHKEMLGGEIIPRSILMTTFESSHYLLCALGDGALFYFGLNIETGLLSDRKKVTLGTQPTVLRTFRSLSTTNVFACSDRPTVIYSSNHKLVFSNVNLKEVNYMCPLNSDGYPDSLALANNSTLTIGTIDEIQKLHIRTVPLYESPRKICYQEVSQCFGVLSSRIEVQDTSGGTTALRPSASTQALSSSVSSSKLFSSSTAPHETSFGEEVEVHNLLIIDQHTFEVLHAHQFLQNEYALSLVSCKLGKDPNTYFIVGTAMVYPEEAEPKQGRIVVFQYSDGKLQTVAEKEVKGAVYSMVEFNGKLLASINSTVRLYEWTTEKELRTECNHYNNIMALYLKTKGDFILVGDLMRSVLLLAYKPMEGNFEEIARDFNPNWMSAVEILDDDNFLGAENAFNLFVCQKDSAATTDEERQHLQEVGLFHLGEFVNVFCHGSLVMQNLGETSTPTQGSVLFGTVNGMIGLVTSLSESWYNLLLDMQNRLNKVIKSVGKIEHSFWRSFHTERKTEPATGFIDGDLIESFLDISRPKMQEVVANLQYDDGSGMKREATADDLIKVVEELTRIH
Chain of HiBiT tagged CK1α (P48729 whole entry): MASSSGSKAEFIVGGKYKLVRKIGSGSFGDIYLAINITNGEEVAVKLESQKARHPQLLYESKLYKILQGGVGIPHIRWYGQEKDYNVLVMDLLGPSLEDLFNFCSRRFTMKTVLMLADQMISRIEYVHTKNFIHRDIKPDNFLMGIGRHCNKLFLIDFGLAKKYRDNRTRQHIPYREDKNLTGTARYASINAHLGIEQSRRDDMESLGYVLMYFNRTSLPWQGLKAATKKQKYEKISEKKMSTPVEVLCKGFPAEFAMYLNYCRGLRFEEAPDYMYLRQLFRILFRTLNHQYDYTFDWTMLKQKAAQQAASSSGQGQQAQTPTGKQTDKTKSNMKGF
Chain of HiBiT tagged CK1α (Q96SW2 whole entry): as the sequence (Q96SW2 whole entry) above
Chain of HiBiT tagged CK1α (Q16531 whole entry partner): as the sequence (Q16531 whole entry partner) above

The term Dmax denotes the greatest extent of degradation seen. Usually DC50 stands for the concentration giving 50% degradation. For `O=C1CCC(N2Cc3cc(C(=O)N[C@H](c4ccc(Cl)cc4)C4CC4)ccc3C2=O)C(=O)N1` (stereo in doubt) [Compound 3, N—((*S)-(4-chlorophenyl)(cyclopropyl)methyl)-2-(2,6-dioxopiperidin-3-yl)-1-oxoisoindoline-5-carboxamide], the Dmax on HiBiT tagged GSPT1 was found to be 73.1%; at HiBiT tagged CK1α (maximum CK1α degradation), 50.6%. On HiBiT tagged CK1α (HT-1080 cells), this compound yielded a DC50 of 5190 nM.
For `O=C1CCC(N2Cc3cc(C(=O)N[C@H](c4ccc(F)cc4)C4CC4)ccc3C2=O)C(=O)N1` (stereo in doubt) [Compound 10, N-((*S)-cyclopropyl(4-fluorophenyl)methyl)-2-(2,6-dioxopiperidin-3-yl)-1-oxoisoindoline-5-carboxamide] the same measures were 36%, 60.8% and 706 nM.
For `O=C1CCC(N2Cc3cc(C(=O)N[C@H](c4ccccc4F)C4CC4)ccc3C2=O)C(=O)N1` (stereo in doubt) [Compound 11, N-((*S)-cyclopropyl(2-fluorophenyl)methyl)-2-(2,6-dioxopiperidin-3-yl)-1-oxoisoindoline-5-carboxamide] the same measures were 23.4%, 64.7% and 308 nM.
For the compound `O=C1CCC(N2Cc3cc(C(=O)N[C@H](c4ccccc4Cl)C4CC4)ccc3C2=O)C(=O)N1` (stereo in doubt) [Compound 12, N-((*S)-(2-chlorophenyl)(cyclopropyl)methyl)-2-(2,6-dioxopiperidin-3-yl)-1-oxoisoindoline-5-carboxamide], the greatest degradation seen (Dmax) came out at 36.8% at HiBiT tagged GSPT1 and 64.7% on HiBiT tagged CK1α (maximum CK1α degradation). The compound also displayed a half-maximal degradation concentration (DC50) on HiBiT tagged CK1α (HT-1080 cells) of 140 nM.
In the case of `O=C1CCC(N2Cc3cc(C(=O)N[C@H](c4ccc(F)cc4Cl)C4CC4)ccc3C2=O)C(=O)N1` (stereo in doubt) [Compound 13, N-((*S)-(2-chloro-4-fluorophenyl)(cyclopropyl)-yl)methyl)-2-(2,6-dioxopiperidin-3-yl)-1-oxoisoindoline-5-carboxamide], the maximal degradation (Dmax) on HiBiT tagged GSPT1 was found to be 37%; on HiBiT tagged CK1α (maximum CK1α degradation) it was 65.9%. The compound further returned a half-maximal degradation concentration (DC50) at HiBiT tagged CK1α (HT-1080 cells) of 293 nM.
The matching figures for `O=C1CCC(N2Cc3cc(C(=O)N[C@H](c4c(F)cccc4F)C4CC4)ccc3C2=O)C(=O)N1` (stereo in doubt) [Compound 17, N-((*S)-cyclopropyl(2,6-difluorophenyl)methyl)-2-(2,6-dioxopiperidin-3-yl)-1-oxoisoindoline-5-carboxamide]: 49.3%, 68.1% and 123 nM.
On to `O=C1CCC(N2Cc3cc(C(=O)N[C@H](c4ncccc4Cl)C4CCC4)ccc3C2=O)C(=O)N1` (stereo in doubt) [Compound 18, N-((*S)-(3-chloropyridin-2-yl)(cyclobutyl)methyl)-2-(2,6-dioxopiperidin-3-yl)-1-oxoisoindoline-5-carboxamide], for which the Dmax at HiBiT tagged GSPT1 was 58.5%; at HiBiT tagged CK1α (maximum CK1α degradation), 66%. On HiBiT tagged CK1α (HT-1080 cells), the DC50 was 137 nM.
The matching figures for `CN1CCN(c2ccc([C@@H](NC(=O)c3ccc4c(c3)CN(C3CCC(=O)NC3=O)C4=O)C3CCC3)cc2)CC1` (stereo in doubt) [Compound 21, N-((*S)-cyclobutyl(4-(4-methylpiperazin-1-yl)phenyl)methyl)-2-(2,6-dioxopiperidin-3-yl)-1-oxoisoindoline-5-carboxamide]: 20.6%, 60.6% and 132 nM.
Take `O=C1CCC(N2Cc3cc(C(=O)N[C@H](c4ncccc4F)C4CCC4)ccc3C2=O)C(=O)N1` (stereo in doubt) [Compound 24, N-((*S)-cyclobutyl(3-fluoropyridin-2-yl)methyl)-2-(2,6-dioxopiperidin-3-yl)-1-oxoisoindoline-5-carboxamide]: the “HiBiT GSPT1: Dmax” value on HiBiT tagged GSPT1 (HT-1080 cells) was found to be 63.1%. This compound came in with a 50% degradation concentration (DC50) on HiBiT tagged CK1α (HT-1080 cells) of 363 nM. For the same compound, the “HiBiT CK1α: Dmax” value at HiBiT tagged CK1α (HT-1080 cells, maximum CK1α degradation) stood at 63.2%.
With `O=C1CCC(N2Cc3cc(C(=O)N[C@@H](c4cccc(F)c4)C4CC4)ccc3C2=O)C(=O)N1` (stereo in doubt) [Compound 25, N-((*R)-cyclopropyl(3-fluorophenyl)methyl)-2-(2,6-dioxopiperidin-3-yl)-1-oxoisoindoline-5-carboxamide], the Dmax at HiBiT tagged GSPT1 worked out at 48.4%; at HiBiT tagged CK1α (maximum CK1α degradation), 54.5%. Further, on HiBiT tagged CK1α (HT-1080 cells), it took 1580 nM to reach half-maximal degradation (DC50).
With `O=C1CCC(N2Cc3cc(C(=O)N[C@H](c4cccc(F)c4)C4CC4)ccc3C2=O)C(=O)N1` (stereo in doubt) [Compound 26, N-((*S)-cyclopropyl(3-fluorophenyl)methyl)-2-(2,6-dioxopiperidin-3-yl)-1-oxoisoindoline-5-carboxamide], the figures for the Dmax on HiBiT tagged GSPT1 and on HiBiT tagged CK1α (maximum CK1α degradation) were 30.7% and 58.4%, respectively. Further, the DC50 on HiBiT tagged CK1α (HT-1080 cells) was 417 nM.
For `O=C1CCC(N2Cc3cc(C(=O)N[C@@H](c4cccc(Cl)c4)C4CC4)ccc3C2=O)C(=O)N1` (stereo in doubt) [Compound 27, N-((*R)-(3-chlorophenyl)(cyclopropyl)methyl)-2-(2,6-dioxopiperidin-3-yl)-1-oxoisoindoline-5-carboxamide] the same measures were 40.3%, 59.3% and 345 nM.
On to `O=C1CCC(N2Cc3cc(C(=O)N[C@H](c4cccc(Cl)c4)C4CC4)ccc3C2=O)C(=O)N1` (stereo in doubt) [Compound 28, N-((*S)-(3-chlorophenyl)(cyclopropyl)methyl)-2-(2,6-dioxopiperidin-3-yl)-1-oxoisoindoline-5-carboxamide], for which the Dmax was 70.8% on HiBiT tagged GSPT1 and 60.1% on HiBiT tagged CK1α (maximum CK1α degradation). Further, on HiBiT tagged CK1α (HT-1080 cells), the DC50 stood at 1150 nM.
On to `Cc1cccc([C@H](NC(=O)c2ccc3c(c2)CN(C2CCC(=O)NC2=O)C3=O)C2CC2)c1` (stereo in doubt) [Compound 29, N-((*R)-cyclopropyl(m-tolyl)methyl)-2-(2,6-dioxopiperidin-3-yl)-1-oxoisoindoline-5-carboxamide], for which the Dmax at HiBiT tagged GSPT1 was determined as 22%; at HiBiT tagged CK1α (maximum CK1α degradation), 58.8%. For the same compound, the 50% degradation concentration (DC50) on HiBiT tagged CK1α (HT-1080 cells) was found to be 553 nM.
Turning to `Cc1cccc([C@@H](NC(=O)c2ccc3c(c2)CN(C2CCC(=O)NC2=O)C3=O)C2CC2)c1` (stereo in doubt) [Compound 30, N-((*S)-cyclopropyl(m-tolyl)methyl)-2-(2,6-dioxopiperidin-3-yl)-1-oxoisoindoline-5-carboxamide], the Dmax at HiBiT tagged GSPT1 was 62.1%; at HiBiT tagged CK1α (maximum CK1α degradation) it was 47.9%.
The matching figures for `COc1cccc([C@H](NC(=O)c2ccc3c(c2)CN(C2CCC(=O)NC2=O)C3=O)C2CC2)c1` (stereo in doubt) [Compound 31, N-((*R)-cyclopropyl(3-methoxyphenyl)methyl)-2-(2,6-dioxopiperidin-3-yl)-1-oxoisoindoline-5-carboxamide]: 60% and 48.1%.
Turning to `COc1cccc([C@@H](NC(=O)c2ccc3c(c2)CN(C2CCC(=O)NC2=O)C3=O)C2CC2)c1` (stereo in doubt) [Compound 32, N-((*S)-cyclopropyl(3-methoxyphenyl)methyl)-2-(2,6-dioxopiperidin-3-yl)-1-oxoisoindoline-5-carboxamide], the Dmax on HiBiT tagged GSPT1 is 36.3%; at HiBiT tagged CK1α (maximum CK1α degradation), 59.3%. At HiBiT tagged CK1α (HT-1080 cells), this compound had a half-maximal degradation concentration (DC50) of 198 nM.
In the case of `O=C1CCC(N2Cc3cc(C(=O)N[C@@H](c4cccc(C(F)(F)F)c4)C4CC4)ccc3C2=O)C(=O)N1` (stereo in doubt) [Compound 33, N-((*R)-cyclopropyl(3-(trifluoromethyl)phenyl)methyl)-2-(2,6-dioxopiperidin-3-yl)-1-oxoisoindoline-5-carboxamide], the greatest degradation seen (Dmax) on HiBiT tagged GSPT1 is 66.3%; at HiBiT tagged CK1α (maximum CK1α degradation), 56.3%. The same compound came in with a DC50 on HiBiT tagged CK1α (HT-1080 cells) of 1300 nM.
The matching figures for `O=C1CCC(N2Cc3cc(C(=O)N[C@H](c4cccc(C(F)(F)F)c4)C4CC4)ccc3C2=O)C(=O)N1` (stereo in doubt) [Compound 34, N-((*S)-cyclopropyl(3-(trifluoromethyl)phenyl)methyl)-2-(2,6-dioxopiperidin-3-yl)-1-oxoisoindoline-5-carboxamide]: 25.8%, 59.5% and 446 nM.
Turning to `O=C1CCC(N2Cc3cc(C(=O)N[C@H](c4ccc(F)cc4)C4CCOCC4)ccc3C2=O)C(=O)N1` (stereo in doubt) [Compound 38, 2-(2,6-dioxopiperidin-3-yl)-N-((*S)-(4-fluorophenyl)(tetrahydro-2H-pyran-4-yl)methyl)-1-oxoisoindoline-5-carboxamide], the results for the greatest degradation seen (Dmax) at HiBiT tagged GSPT1 and on HiBiT tagged CK1α (maximum CK1α degradation) were 19.9% and 64.1%, respectively. Also, the 50% degradation concentration (DC50) at HiBiT tagged CK1α (HT-1080 cells) stood at 218 nM.
The matching figures for `Cc1ccccc1[C@@H](NC(=O)c1ccc2c(c1)CN(C1CCC(=O)NC1=O)C2=O)C1CC1` (stereo in doubt) [Compound 39, N-((*S)-cyclopropyl(o-tolyl)methyl)-2-(2,6-dioxopiperidin-3-yl)-1-oxoisoindoline-5-carboxamide]: 32.5%, 61% and 363 nM.
